Measured values published in patent US8436039B2, “Inhibitors of the ATB(0,+) transporter and uses thereof” (Georgia Health Sciences University Research Institute, Inc., priority 2008, dated 2013).

Assays:
human ATB^0,+ = molecular target: T1, human ATB^0,+ (Homo sapiens, UniProt Q9UN76); test: L-tryptophan-induced inward currents in X. laevis oocytes expressing human ATB^0,+; type: cell-based; conditions: 1 mM added simultaneously with 20 μM L-tryptophan
T1 construct: The human ATB^0,+ cDNA was cloned from an MCF7 cell (a human mammary epithelial cancer cell line) cDNA library; expressed in transfected cells; host or cells: Xenopus laevis oocytes injected with 50 ng capped cRNA
T1 sequence (Q9UN76 1-642): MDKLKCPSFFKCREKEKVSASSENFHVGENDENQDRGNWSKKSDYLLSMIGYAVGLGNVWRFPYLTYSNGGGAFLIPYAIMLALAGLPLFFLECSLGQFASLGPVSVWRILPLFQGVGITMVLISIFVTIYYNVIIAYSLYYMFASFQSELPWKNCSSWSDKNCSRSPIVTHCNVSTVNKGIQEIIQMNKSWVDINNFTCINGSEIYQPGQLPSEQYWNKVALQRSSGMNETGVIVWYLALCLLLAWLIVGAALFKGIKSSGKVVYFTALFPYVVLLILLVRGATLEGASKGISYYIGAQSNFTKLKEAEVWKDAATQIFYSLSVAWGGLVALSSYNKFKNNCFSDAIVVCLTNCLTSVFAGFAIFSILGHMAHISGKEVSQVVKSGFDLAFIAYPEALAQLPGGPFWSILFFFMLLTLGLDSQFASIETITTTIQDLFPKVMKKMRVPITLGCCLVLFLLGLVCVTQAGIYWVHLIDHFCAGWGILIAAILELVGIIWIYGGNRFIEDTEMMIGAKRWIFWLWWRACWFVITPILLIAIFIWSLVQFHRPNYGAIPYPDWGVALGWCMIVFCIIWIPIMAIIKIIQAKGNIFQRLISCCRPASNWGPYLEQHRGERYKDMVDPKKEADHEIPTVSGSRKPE
Experimental: Capped cRNA from the cloned mouse or human ATB^0,+ cDNA was synthesized using the mMESSAGE mMACHTNE kit (Ambion, Austin, Tex., U.S.A.). Mature oocytes (stage IV or V) from X. laevis were injected with 50 ng of cRNA. Uninjected oocytes served as controls. The oocytes were used for electrophysiological studies 3-6 days after cRNA injection. Electrophysiological studies were performed by the two-microelectrode voltage-clamp method (Nakanishi et al., 2001, J. Physiol. 532, 297-304). Oocytes were superfused with an NaCl-containing buffer (100 mM NaCl, 2 mM KCl, 1 mM MgCl2, 1 mM CaCl2, 3 mM Hepes, 3 mM Mes and 3 mM Tris, pH 7.5), followed by the same buffer containing tryptophan derivatives. The membrane potential was clamped at −50 mV. The differences between the steady-state currents measured in the presence and absence of substrates were considered as the substrate-induced currents. In the analysis of the saturation kinetics of substrate-induced currents, the kinetic parameter K0.5 (i.e. substrate concentration necessary for induction of half-maximal current) was calculated by fitting the values of the substrate-induced currents to the Michaelis-Menten equation. The Na^+ and Cl^− activation kinetics of substrate-induced currents were analysed by measuring the substrate-specific currents in the presence of increasing concentrations of Na^+ (concentration of Cl^− kept constant at 100 mM) or in the presence of increasing concentrations of Cl^− (concentration of Na^+ kept constant at 100 mM). In these experiments, the composition of the superfusion buffer was modified to contain 2 mM potassium gluconate, 1 mM MgSO4 and 1 mM calcium gluconate in place of KCl, MgCl2 and CaCl2 respectively. The data from these experiments were analysed by the Hill equation to determine the Hill coefficient (h; number of Na^+ and Cl^− ions involved in the activation process). The kinetic parameters were determined by using the commercially available computer program Sigma Plot, version 6.0 (SPSS, Chicago, Ill., U.S.A.). […]

MCF7 cells = test: Colony formation assay, dose-response in MCF7 cells; type: cell-based; conditions: Homo sapiens, same assay conditions, read-out: IC50 for inhibition of colony formation
Experimental: The colony formation assay was performed as described previously (Thangaraju et al., 2006, Cancer Res. 66, 11560-11564). Mammary epithelial cells were seeded on to 6-well plates (10000 cells per well) in DMEM. After 24 hours, cells were exposed to varying concentrations of α-methyl-DL-tryptophan or 1-methyl-DL-tryptophan for 2 weeks, changing medium every 2 days. Cells were washed with PBS and fixed in 100% (v/v) methanol for 30 min followed by staining with KaryoMAX Giemsa stain for one hour. The wells were washed with water and dried overnight at room temperature. Finally, the dye in the wells was dissolved with 1% SDS in 0.2 M NaOH for one hour, and the attenuance of the released dye was measured at 630 nm.
The present studies have identified α-methyl-DL-tryptophan as a blocker of ATB^0,+ and also have shown that the compound is able to block the transport of amino acids via ATB^0,+ under conditions that stimulate those in vivo in terms of amino acid concentrations. […] For this, we treated the human mammary epithelial cell lines with 2.5 mM α-methyl-DL-tryptophan in the presence of regular culture medium for 12 days in clonogenic assay and quantified the colony formation for each cell line in the presence and absence of α-methyl-DL-tryptophan (FIG. 8). […]

Row | Structure (SMILES) | effect on inward currents induced by 20 μM L-tryptophan (human ATB^0,+) | IC50 (MCF7 cells)
1 | CC(N)(Cc1c[nH]c2ccccc12)C(=O)O (racemic) [α-methyl-DL-tryptophan] | blocked completely | 160 ± 15 µM
2 | Cn1cc(CC(N)C(=O)O)c2ccccc21 (racemic) [1-methyl-DL-tryptophan] | greater than that with 20 μM L-tryptophan alone | 
